Residue numbers refer to the chain shown, from its start. Where “and” joins values, the source holds several entries; their conditions need not be identical. Equal values may be shown once.
What was measured:
Type in all cases: cell-based
wild-type CysLT2R [1] = target: T1, wild-type CysLT2R (Homo sapiens, UniProt Q9NS75); experiment: IP1 production assay, antagonist mode, LTC4 (EC80) as agonist; details: HEK293, wild-type CysLT2R; LTC4 at EC80
T1 construct: expressed in transfected cells; host or cells: HEK293 (ATCC CRL-1573), transient transfection with Lipofectamine 3000
T1 sequence (Q9NS75 1-346): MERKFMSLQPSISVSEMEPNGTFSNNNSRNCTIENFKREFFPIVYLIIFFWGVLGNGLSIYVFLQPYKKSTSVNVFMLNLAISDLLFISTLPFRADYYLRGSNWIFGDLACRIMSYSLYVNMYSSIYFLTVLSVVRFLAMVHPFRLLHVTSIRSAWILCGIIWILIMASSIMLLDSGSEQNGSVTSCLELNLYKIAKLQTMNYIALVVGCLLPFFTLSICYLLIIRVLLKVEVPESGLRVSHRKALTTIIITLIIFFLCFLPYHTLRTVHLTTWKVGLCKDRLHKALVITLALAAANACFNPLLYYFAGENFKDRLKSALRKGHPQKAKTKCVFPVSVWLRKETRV
Procedure: (§1) All 139 selected compounds were screened in a functional assay measuring IP1 production as an indicator of Gαq activation. For this assay, we used the Cisbio IP-One kit as previously described. Human Embryonic Kidney (HEK) 293 cells (ATCC CRL-1573) between passages 5 and 25 were seeded onto poly-L-Lysine-coated 384-well plates at 20,000 cells/well and transfected with 30 ng of cDNA coding for the wild-type CysLT1R or CysLT2R receptors or for the CysLT2R mutant L129Q, using the Lipofectamine 3000 (Thermo Fisher Scientific) transfection agent. At 48 h post-transfection, the media was removed and the cells were washed with fresh Hank’s Balanced Salt Solution (HBSS). […] First, all 139 selected compounds were screened at a 30 µM concentration in both the agonist and antagonist mode in cells transiently expressing the wildtype CysLT1R or CysLT2R receptors. […] For CysLT1R, the compounds retained were BRI-12328, BRI-12334, BRI-12359, BRI-12410, BRI-12411, BRI-12417, BRI-12424, BRI-12435, BRI-12450, and BRI-12458; for CysLT2R, these were BRI-12328, BRI-12334, BRI-12359, BRI-12401, BRI-12402, BRI-12405, BRI-12410, BRI-413, BRI-12417, BRI-12424, BRI-426, BRI-427, BRI-450, BRI-453, BRI-454, BRI-458, and BRI-466. These hits were again tested in the antagonist mode with compound concentrations ranging from 1.56 µM to 100 µM, at 2-fold concentration intervals. The three best hits (BRI-12359, BRI-417, and BRI-424) were also tested using the LTC4 ligand (EC80 concentration) and in cells transiently expressing the constitutively active CysLT2R mutant L129Q. […] After compound stimulation, the cells were incubated for 1 h at 37 °C and stimulated with IP1-D2 and Ab-Crypt reagents in Lysis Buffer. The cells were then incubated at room temperature for an additional hour. The plate was read on a Tecan Genios Pro plate reader using a HTRF (homogeneous time-resolved fluorescence) filter set (λex = 320 nm, λem = 620 and 655 nm). Normalized data were plotted using either the three-parameter or four-parameter EC50/IC50 fits of GraphPad Prism 8 (San Diego). […] Data represent the means ± SEM of at least three independent experiments performed in quadruplicate. For the additional antagonist experiments performed with BRI-12359, we performed Schild analysis in order to determine pA2 values.

wild-type CysLT1R [2] = target: T2, wild-type CysLT1R (Homo sapiens, UniProt Q9Y271); experiment: as above; details: HEK293, wild-type CysLT1R, LTC4 at EC80; for Ki: functional Ki by Cheng-Prusoff, read-out: CysLT1R (LTC4) Ki ± SEM
T2 construct: expressed in transfected cells; host or cells: HEK293 (ATCC CRL-1573), transient transfection with Lipofectamine 3000
T2 sequence (Q9Y271 1-337): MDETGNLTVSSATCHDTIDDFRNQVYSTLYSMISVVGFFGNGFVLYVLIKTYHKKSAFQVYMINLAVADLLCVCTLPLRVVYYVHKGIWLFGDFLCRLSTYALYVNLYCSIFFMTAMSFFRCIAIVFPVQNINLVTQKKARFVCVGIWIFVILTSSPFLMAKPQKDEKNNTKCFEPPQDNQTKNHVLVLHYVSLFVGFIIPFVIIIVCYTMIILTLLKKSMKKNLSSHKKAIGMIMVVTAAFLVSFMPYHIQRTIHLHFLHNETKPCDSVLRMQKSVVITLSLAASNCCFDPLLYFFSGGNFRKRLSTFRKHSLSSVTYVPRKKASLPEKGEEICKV
Procedure: as §1

wild-type CysLT2R [3] = target: T1, wild-type CysLT2R; experiment: IP1 production assay, antagonist mode, co-stimulation with EC80 LTD4; details: for inhibition at 30 µM: HEK293, compound 30 µM, LTD4 at EC80, HEK293, wild-type CysLT2R, read-out: inhibition of LTD4-induced IP1 production, single-concentration screen; for Emax: HEK293, read-out: CysLT2R (LTD4) % Max Inhibition ± SEM
wild-type CysLT1R [4] = target: T2, wild-type CysLT1R; experiment: as above; details: for Emax: HEK293, read-out: CysLT1R (LTD4) % Max Inhibition ± SEM; for extent of inhibition of LTD4-mediated response at CysLT1R (in words): antagonist mode, 1.5 to 100 µM; for inhibition at 30 µM: HEK293, compound 30 µM, LTD4 at EC80, HEK293, wild-type CysLT1R, read-out: inhibition of LTD4-induced IP1 production, single-concentration screen
CysLT2R-WT = target: T3, CysLT2R-WT (Homo sapiens, UniProt Q9NS75); experiment: IP1 production assay, Schild analysis: fixed BRI-12359 then range of LTD4
T3 construct: expressed in transfected cells; host or cells: HEK293 (ATCC CRL-1573), transient transfection with Lipofectamine 3000
T3 sequence (Q9NS75 1-346): T1 sequence (Q9NS75 1-346)
Procedure: (§2) For this assay, we used the Cisbio IP-One kit as previously described. […] At 48 h post-transfection, the media was removed and the cells were washed with fresh Hank’s Balanced Salt Solution (HBSS). […] After compound stimulation, the cells were incubated for 1 h at 37 °C and stimulated with IP1-D2 and Ab-Crypt reagents in Lysis Buffer. The cells were then incubated at room temperature for an additional hour. […] Normalized data were plotted using either the three-parameter or four-parameter EC50/IC50 fits of GraphPad Prism 8 (San Diego). […] Data represent the means ± SEM of at least three independent experiments performed in quadruplicate.

CysLT1R-WT = target: T4, CysLT1R-WT (Homo sapiens, UniProt Q9Y271); experiment: as above
T4 construct: expressed in transfected cells; host or cells: HEK293 (ATCC CRL-1573), transient transfection with Lipofectamine 3000
T4 sequence (Q9Y271 1-337): T2 sequence (Q9Y271 1-337)
Procedure: as §2

CysLT2R mutant L129Q = target: T5, CysLT2R mutant L129Q (Homo sapiens, UniProt Q9NS75, L129Q); experiment: IP1 production assay, constitutively active mutant, direct compound stimulation (inverse agonism); details: for % max inhibition ± SEM of constitutive IP1 accumulation / IC50: HEK293 transiently expressing CysLT2R L129Q; for % max inhibition ± SEM of constitutive IP1 accumulation: WT non-stimulated = 0%, L129Q non-stimulated = 100%; for IC50: compound 1.6 to 100 μM, no agonist, read-out: IC50 ± SEM, inhibition of constitutive IP1 accumulation
T5 construct: expressed in transfected cells; host or cells: HEK293 (ATCC CRL-1573), transient transfection with Lipofectamine 3000
T5 sequence (Q9NS75 1-346 L129Q): T1 sequence (Q9NS75 1-346) with L129Q
Procedure: as §1
This effect would be particularly interesting in the case of the L129Q CysLT2R mutant identified in uveal melanoma patients. We tested these three compounds in the functional IP1 assay using cells transiently expressing the L129Q CysLT2R mutant, directly stimulated with a range of compound concentrations (1.6 to 100 μM).

| CysLT2R (LTC4) % Max Inhibition ± SEM (wild-type CysLT2R [1]) [%] | CysLT1R (LTC4) % Max Inhibition ± SEM (wild-type CysLT1R [2]) [%] | Ki (wild-type CysLT1R [2]) | Ki (wild-type CysLT2R [3]) [µM] | remaining activity at 30 µM (wild-type CysLT2R [3]) [%] | inhibition at 30 µM (wild-type CysLT2R [3]) [%] | Emax (wild-type CysLT2R [3]) [%] | extent of inhibition of LTD4-induced response at CysLT2R (in words) (wild-type CysLT2R [3]; antagonist mode, 1.5 to 100 µM) | Ki (wild-type CysLT1R [4]) [nM] | remaining activity at 30 µM (wild-type CysLT1R [4]) [%] | Emax (wild-type CysLT1R [4]) [%] | extent of inhibition of LTD4-mediated response at CysLT1R (in words) (wild-type CysLT1R [4]) | Kb (CysLT2R-WT) [µM] | pA2 ± SEM (CysLT2R-WT; Schild analysis, CysLT2R-WT, LTD4) | Kb (CysLT1R-WT) [nM] | pA2 ± SEM (CysLT1R-WT; Schild analysis, CysLT1R-WT, LTD4) | inhibition of IP1 production by CysLT2R L129Q mutant (in words) (CysLT2R mutant L129Q; 100 μM compound) | % max inhibition ± SEM of constitutive IP1 accumulation (CysLT2R mutant L129Q) [%] | IC50 (CysLT2R mutant L129Q) | inhibition at 30 µM (wild-type CysLT1R [4]) [%] | SMILES |
| --- | --- | --- | --- | --- | --- | --- | --- | --- | --- | --- | --- | --- | --- | --- | --- | --- | --- | --- | --- | --- |
| 65 ± 11 | 105 ± 7 | 700 nM and 720 nM | 6.46 ± 0.43 | 36.2 | ≥ 50 | 92 ± 15 | fully abolished | 1030 ± 280 | 5.59 | 121 ± 13 | completely inhibit | 105 ± 37 | 4.0 ± 0.2 −log | 340 ± 90 | 6.5 ± 0.1 −log | practically full inhibition | 82 ± 11 | 30 to 40 µM and 32 µM | – | NC(=O)c1ccsc1NC(=O)CSc1nnc(-c2c[nH]c3ccccc23)o1 [BRI-12359] |
| 32 ± 5 | 83 ± 14 | 700 nM and 680 nM | – | 74.4 | < 50 | 54 ± 6 | – | 3100 ± 630 | 54.7 | 100 ± 17 | completely inhibit | – | – | – | – | – | 59 ± 12 | 30 to 40 µM and 38 µM | ≥ 50 | NC(=O)c1ccccc1Oc1ccc(NC(=O)c2ccc3nc(C(F)(F)F)cn3c2)cc1 [BRI-12417] |
| 9 ± 5 | 52 ± 9 | 180 ± 30 nM | – | 79.7 | < 50 | 7 ± 5 | – | 220 ± 30 | 50.8 | 71 ± 19 | partial antagonism | – | – | – | – | – | 21 ± 10 | – | ≥ 50 | Cn1c(-c2ccc(NC(=O)c3cccc(OCC(=O)O)c3)cc2)nc2ccccc21 [BRI-12424] |

— publication PMC7761830, “Structure-Based Virtual Screening of Ultra-Large Library Yields Potent Antagonists for a Lipid GPCR” (Biomolecules, 2020)
